Test systems include COLO 205 colon; MCF7 breast; UACC-62 melanoma; HCT-116 colon; OVCAR-5 ovarian; OVCAR-3 ovarian; SK-MEL-5 melanoma; SN12C renal; UO-31 renal; HL-60(TB) leukemia.
Experiment in all cases: DTP human tumour cell line panel, 48 h

Each structure is given as a SMILES string.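 Where inhibition never reached the appropriate level, the endpoint shown equals the highest concentration tested. Otherwise, values were interpolated linearly from a five-concentration, 48-hour dose response in 96-well plates. Here, GI50 denotes the concentration required for 50% inhibition of growth. TGI: concentration producing complete growth inhibition.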 Some results are limits rather than exact numbers.

For the molecule `CCc1nc(-n2c(-c3ccccc3)nc3ccccc3c2=O)nc(N)c1-c1ccc(Cl)cc1`, the GI50 (usually the concentration giving 50% growth inhibition) was 14.2 µM in the assay on COLO 205 colon; 80.7 µM in the assay on MCF7 breast; 6.55 µM in the assay with UACC-62 melanoma; 3.28 µM with HCT-116 colon; 2.86 µM with OVCAR-5 ovarian; 0.554 µM with OVCAR-3 ovarian. In addition, the results for the GI50 in the assay on SK-MEL-5 melanoma, with SN12C renal and with UO-31 renal were 5.6 µM, 15.6 µM and 48.6 µM, respectively. Moreover, the total growth inhibition concentration (TGI) (as a rule, the concentration giving total growth inhibition) was over 100 µM in the assay on COLO 205 colon; over 100 µM with MCF7 breast; over 100 µM with UACC-62 melanoma; over 100 µM with HCT-116 colon; over 100 µM with OVCAR-5 ovarian; 30.7 µM with OVCAR-3 ovarian. Also, the TGI is 33 µM with SK-MEL-5 melanoma, over 100 µM in the assay on SN12C renal and over 100 µM in the assay with UO-31 renal.
As to `COc1cc([C@@H]2c3cc4c(cc3C[C@H]3COC(=O)[C@@H]32)OCO4)cc2c1OCO2`, the total growth inhibition concentration (TGI) in the assay on COLO 205 colon is 0.0149 µM; in the assay on MCF7 breast, over 100 µM; with UACC-62 melanoma, over 100 µM; in the assay on OVCAR-5 ovarian it was over 100 µM; in the assay on OVCAR-3 ovarian it was under 0.01 µM; with SK-MEL-5 melanoma it was under 0.01 µM. Besides, the total growth inhibition concentration (TGI) in the assay with SN12C renal and in the assay on UO-31 renal was over 100 µM each time.
Take `N#Cc1cccc(OCc2ccccc2COc2cccc(C#N)c2)c1`: the GI50 is 33.8 µM in the assay on COLO 205 colon; 50.3 µM with MCF7 breast; 18.3 µM with UACC-62 melanoma; 22 µM in the assay on HCT-116 colon; 87 µM in the assay with OVCAR-5 ovarian; 43.4 µM in the assay with SK-MEL-5 melanoma. Further, the values for the GI50 in the assay on SN12C renal and in the assay with UO-31 renal were 19 µM and 51.3 µM, respectively. In addition, the total growth inhibition concentration (TGI) was 98.3 µM with COLO 205 colon; over 100 µM in the assay on MCF7 breast; 73 µM in the assay on UACC-62 melanoma; 93.3 µM in the assay with HCT-116 colon; over 100 µM in the assay with OVCAR-5 ovarian; over 100 µM in the assay with SK-MEL-5 melanoma. The TGI with SN12C renal is 73.1 µM; in the assay on UO-31 renal it was over 100 µM.
On to `O=C(NCCCCOCC#Cc1ccccc1C#CCS(=O)(=O)c1ccccc1)c1cc2ccccc2[nH]1`, for which the GI50 in the assay on COLO 205 colon was 10.9 µM; in the assay on MCF7 breast it was 8.91 µM; in the assay on UACC-62 melanoma, 8.29 µM; in the assay on HCT-116 colon, 9.63 µM; in the assay on OVCAR-5 ovarian, 26.8 µM; in the assay on OVCAR-3 ovarian it was 14 µM. Moreover, the GI50 is 7.86 µM in the assay with SK-MEL-5 melanoma, 10 µM in the assay on SN12C renal and 4.05 µM in the assay on UO-31 renal. Also, the TGI in the assay on COLO 205 colon was 28.1 µM; with MCF7 breast, over 26.1 µM; with UACC-62 melanoma, 16.6 µM; in the assay on HCT-116 colon it was 26.6 µM; with OVCAR-5 ovarian, over 50 µM; in the assay with OVCAR-3 ovarian, over 35 µM. Also, the TGI worked out at 16.3 µM in the assay with SK-MEL-5 melanoma, 24.9 µM in the assay with SN12C renal and 11.8 µM with UO-31 renal.
`C#Cc1cc2c(N)c(C(=O)c3cc(OC)c(OC)c(OC)c3)[nH]c2cc1OC`: the concentration for 50% growth inhibition (GI50) with COLO 205 colon is 0.38 µM; in the assay on MCF7 breast it was 0.325 µM; in the assay on UACC-62 melanoma it was 2.77 µM; in the assay with HCT-116 colon it was 0.431 µM; in the assay with OVCAR-5 ovarian, 3.79 µM; in the assay with SK-MEL-5 melanoma it was 0.434 µM. Also, the GI50 in the assay with SN12C renal is 11.2 µM; with UO-31 renal, 0.722 µM. Moreover, the TGI with COLO 205 colon is 2.27 µM; with MCF7 breast it was over 100 µM; in the assay with UACC-62 melanoma it was over 100 µM; in the assay with HCT-116 colon, over 100 µM; in the assay on OVCAR-5 ovarian, over 100 µM; with SK-MEL-5 melanoma, 12.9 µM. Moreover, the TGI is over 100 µM in the assay on SN12C renal and 56.1 µM in the assay on UO-31 renal.
As for `CN(C)CC1CCCC/C1=N/OC(=O)c1ccc(Cl)c(Cl)c1` (configuration not stated), the TGI with COLO 205 colon, with UACC-62 melanoma, in the assay with HCT-116 colon, in the assay with OVCAR-5 ovarian, in the assay with OVCAR-3 ovarian and with SK-MEL-5 melanoma was over 100 µM each time. The concentration for total growth inhibition (TGI) in the assay on HL-60(TB) leukemia, in the assay on SN12C renal and in the assay with UO-31 renal was over 100 µM each time.
As for `Nc1nc(N)c(-c2ccccc2)c(CCC(=O)Nc2ccc(Cl)cc2)n1`, the TGI with COLO 205 colon, in the assay with UACC-62 melanoma, with HCT-116 colon, in the assay on OVCAR-5 ovarian, with OVCAR-3 ovarian and in the assay with SK-MEL-5 melanoma was over 100 µM each time. Moreover, the concentration for total growth inhibition (TGI) in the assay with HL-60(TB) leukemia, in the assay with SN12C renal and in the assay with UO-31 renal was over 100 µM in each case.
Consider `CC1=C(C(=O)Nc2ccccc2)C(c2ccc(C(C)C)cc2)C(C(=O)Nc2ccccc2)=C(C)N1`, for which the TGI was found to be 28.6 µM in the assay with COLO 205 colon; 35 µM in the assay with UACC-62 melanoma; 27 µM in the assay with HCT-116 colon; 38.5 µM in the assay with OVCAR-5 ovarian; 56.3 µM in the assay on OVCAR-3 ovarian; 27 µM with SK-MEL-5 melanoma. The values for the total growth inhibition concentration (TGI) with HL-60(TB) leukemia, with SN12C renal and with UO-31 renal were 30.7 µM, 27.8 µM and 46.6 µM, respectively.
As for `COc1ccc(C(=O)O/N=C2/CCC/C2=C\c2ccccc2)cc1`, the concentration for total growth inhibition (TGI) with COLO 205 colon, in the assay on UACC-62 melanoma, with HCT-116 colon, in the assay on OVCAR-5 ovarian, in the assay on OVCAR-3 ovarian and with SK-MEL-5 melanoma was over 100 µM in each case. Also, the total growth inhibition concentration (TGI) with HL-60(TB) leukemia, with SN12C renal and with UO-31 renal was over 100 µM each time.

Source of the values: PubChem BioAssay (NCI).
